Reference: ChEMBL document CHEMBL1201862, “PubChem BioAssay data set” (2004)
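Results reflect a 48-hour exposure of cells in 96-well plates to compound at five concentrations. Abbreviation: GI50, concentration required for 50% inhibition of growth.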 Active and inactive are the calls of the source. Cut-off read from the data, not from the text of the source: active = GI50 up to about 1.1 µM and inactive = higher.

Assays:
Test in all cases: DTP human tumour cell line panel, 48 h
786-0 = test system: 786-0
A498 = test system: A498
A549 = test system: A549
ACHN = test system: ACHN
BT-549 = test system: BT-549
CAKI-1 = test system: CAKI-1
CCRF-CEM = test system: CCRF-CEM
COLO 205 = test system: COLO 205
DU-145 = test system: DU-145
HCT-116 = test system: HCT-116
HCT-15 = test system: HCT-15
HL-60 = test system: HL-60
HOP-62 = test system: HOP-62
HOP-92 = test system: HOP-92
HT-29 = test system: HT-29
Hs-578T = test system: Hs-578T
IGROV-1 = test system: IGROV-1
K562 = test system: K562
KM12 = test system: KM12
LOX IMVI = test system: LOX IMVI
M14 = test system: M14
MCF7 = test system: MCF7
MDA-MB-231 = test system: MDA-MB-231
MDA-MB-435 = test system: MDA-MB-435
MOLT-4 = test system: MOLT-4
Malme-3M = test system: Malme-3M
NCI-H226 = test system: NCI-H226
NCI-H23 = test system: NCI-H23
NCI-H460 = test system: NCI-H460
NCI-H522 = test system: NCI-H522
NCI/ADR-RES = test system: NCI/ADR-RES
OVCAR-3 = test system: OVCAR-3
OVCAR-4 = test system: OVCAR-4
OVCAR-5 = test system: OVCAR-5
OVCAR-8 = test system: OVCAR-8
PC-3 = test system: PC-3
RPMI-8226 = test system: RPMI-8226
RXF 393 = test system: RXF 393
SF-268 = test system: SF-268
SF-295 = test system: SF-295
SF-539 = test system: SF-539
SK-MEL-28 = test system: SK-MEL-28
SK-MEL-2 = test system: SK-MEL-2
SK-MEL-5 = test system: SK-MEL-5
SK-OV-3 = test system: SK-OV-3
SN12C = test system: SN12C
SNB-19 = test system: SNB-19
SNB-75 = test system: SNB-75
SR = test system: SR
SW-620 = test system: SW-620
T47D = test system: T47D
TK-10 = test system: TK-10
U-251 = test system: U-251
UACC-257 = test system: UACC-257
UACC-62 = test system: UACC-62
UO-31 = test system: UO-31
EKVX = test system: EKVX
HCC 2998 = test system: HCC 2998
MDA-N = test system: MDA-N

`COc1cc2c(/C=C3/C(=O)Nc4ccc(Cl)cc43)c(Cl)n(Cc3ccccc3)c2cc1C` was tested, and the GI50 (786-0) was 2.59 µM (inactive), the GI50 (A498) was 2.65 µM (inactive) and the GI50 (A549) was 3.27 µM (inactive). For the same compound, the GI50 (ACHN) was 2.41 µM (inactive), the GI50 (BT-549) was 7.85 µM (inactive) and the GI50 (CAKI-1) was 2.97 µM (inactive). For the same compound, the GI50 (CCRF-CEM) was 2.89 µM (inactive), the GI50 (COLO 205) was 2.41 µM (inactive) and the GI50 (DU-145) was 3.9 µM (inactive). The GI50 (HCT-116) was 3.81 µM (inactive), the GI50 (HCT-15) was 4.01 µM and the GI50 (HL-60) was 3.93 µM (inactive). For the same compound, the GI50 (HOP-62) was 2.11 µM (inactive), the GI50 (HOP-92) was 5.51 µM (inactive) and the GI50 (HT-29) was 8.26 µM (inactive). For the same compound, the GI50 (Hs-578T) was 4.56 µM (inactive), the GI50 (IGROV-1) was 3.29 µM (inactive) and the GI50 (K562) was 3.14 µM (inactive). The GI50 (KM12) was 2.33 µM (inactive), the GI50 (LOX IMVI) was 3.57 µM (inactive) and the GI50 (M14) was 4.19 µM (inactive). For the same compound, the GI50 (MCF7) was 5 µM (inactive), the GI50 (MDA-MB-231) was 2.48 µM (inactive) and the GI50 (MDA-MB-435) was 2.43 µM (inactive). For the same compound, the GI50 (MOLT-4) was 2.26 µM (inactive), the GI50 (Malme-3M) was 2.22 µM (inactive) and the GI50 (NCI-H226) was 2.81 µM (inactive). The GI50 (NCI-H23) was 2.84 µM (inactive), the GI50 (NCI-H460) was 3.3 µM (inactive) and the GI50 (NCI-H522) was 3.18 µM (inactive). The GI50 (NCI/ADR-RES) was 3.86 µM (inactive), the GI50 (OVCAR-3) was 1.98 µM (inactive) and the GI50 (OVCAR-4) was 1.95 µM (inactive). For the same compound, the GI50 (OVCAR-5) was 2.51 µM (inactive), the GI50 (OVCAR-8) was 2.59 µM (inactive) and the GI50 (PC-3) was 5.89 µM (inactive). For the same compound, the GI50 (RPMI-8226) was 2.51 µM (inactive), the GI50 (RXF 393) was 2.31 µM (inactive) and the GI50 (SF-268) was 6.19 µM (inactive). The GI50 (SF-295) was 2.81 µM (inactive), the GI50 (SF-539) was 2.94 µM (inactive) and the GI50 (SK-MEL-28) was 2.39 µM (inactive). The GI50 (SK-MEL-2) was 6.21 µM (inactive), the GI50 (SK-MEL-5) was 3.32 µM (inactive) and the GI50 (SK-OV-3) was 1.74 µM (inactive). For the same compound, the GI50 (SN12C) was 2.59 µM (inactive), the GI50 (SNB-19) was 3.1 µM (inactive) and the GI50 (SNB-75) was 2.04 µM (inactive). The GI50 (SR) was 2.72 µM (inactive), the GI50 (SW-620) was 6.73 µM (inactive) and the GI50 (T47D) was 3.17 µM (inactive). For the same compound, the GI50 (TK-10) was 1.8 µM (inactive), the GI50 (U-251) was 2.3 µM (inactive) and the GI50 (UACC-257) was 6.34 µM (inactive). For the same compound, the GI50 (UACC-62) was 3.08 µM (inactive) and the GI50 (UO-31) was 2.51 µM (inactive).

`CCCCCCCCCCCCCCCCCC(=O)Nc1ccn(C2CCC(COP(=O)(O)O)O2)c(=O)n1` (centres undefined) was tested, and the GI50 (786-0) was > 100 µM (inactive), the GI50 (A498) was > 100 µM (inactive) and the GI50 (A549) was > 100 µM (inactive). The GI50 (ACHN) was > 100 µM (inactive), the GI50 (BT-549) was > 100 µM (inactive) and the GI50 (CAKI-1) was > 100 µM (inactive). The GI50 (CCRF-CEM) was > 100 µM (inactive), the GI50 (COLO 205) was > 100 µM (inactive) and the GI50 (DU-145) was > 100 µM (inactive). For the same compound, the GI50 (EKVX) was > 100 µM (inactive), the GI50 (HCC 2998) was > 100 µM (inactive) and the GI50 (HCT-116) was > 100 µM (inactive). For the same compound, the GI50 (HCT-15) was greater than 100 µM, the GI50 (HOP-62) was > 100 µM (inactive) and the GI50 (HOP-92) was > 100 µM (inactive). The GI50 (HT-29) was > 100 µM (inactive), the GI50 (Hs-578T) was > 100 µM (inactive) and the GI50 (IGROV-1) was > 100 µM (inactive). For the same compound, the GI50 (K562) was > 100 µM (inactive), the GI50 (KM12) was > 100 µM (inactive) and the GI50 (LOX IMVI) was > 100 µM (inactive). The GI50 (M14) was > 100 µM (inactive), the GI50 (MCF7) was > 100 µM (inactive) and the GI50 (MDA-MB-231) was > 100 µM (inactive). For the same compound, the GI50 (MDA-MB-435) was > 100 µM (inactive), the GI50 (MOLT-4) was > 100 µM (inactive) and the GI50 (NCI-H226) was > 100 µM (inactive). The GI50 (NCI-H23) was > 100 µM (inactive), the GI50 (NCI-H522) was > 100 µM (inactive) and the GI50 (NCI/ADR-RES) was > 100 µM (inactive). The GI50 (OVCAR-3) was > 100 µM (inactive), the GI50 (OVCAR-4) was > 100 µM (inactive) and the GI50 (OVCAR-5) was > 100 µM (inactive). The GI50 (OVCAR-8) was > 100 µM (inactive), the GI50 (PC-3) was > 100 µM (inactive) and the GI50 (RPMI-8226) was > 100 µM (inactive). For the same compound, the GI50 (RXF 393) was > 100 µM (inactive), the GI50 (SF-268) was > 100 µM (inactive) and the GI50 (SF-295) was > 100 µM (inactive). The GI50 (SF-539) was > 100 µM (inactive), the GI50 (SK-MEL-28) was > 100 µM (inactive) and the GI50 (SK-MEL-2) was > 100 µM (inactive). For the same compound, the GI50 (SK-MEL-5) was > 100 µM (inactive), the GI50 (SK-OV-3) was > 100 µM (inactive) and the GI50 (SN12C) was > 100 µM (inactive). The GI50 (SNB-19) was > 100 µM (inactive), the GI50 (SNB-75) was > 100 µM (inactive) and the GI50 (SR) was > 100 µM (inactive). For the same compound, the GI50 (SW-620) was > 100 µM (inactive), the GI50 (T47D) was > 100 µM (inactive) and the GI50 (TK-10) was > 100 µM (inactive). For the same compound, the GI50 (U-251) was > 100 µM (inactive), the GI50 (UACC-257) was > 100 µM (inactive) and the GI50 (UACC-62) was > 100 µM (inactive). For the same compound, the GI50 (UO-31) was > 100 µM (inactive).

`CCOC(=O)c1c(C)[nH]c2c1c(CN(C)C)c(O)c1nc(C)c(C)nc12` was tested, and the GI50 (786-0) was 16.1 µM (inactive), the GI50 (A498) was 15.2 µM (inactive) and the GI50 (A549) was 22.4 µM (inactive). The GI50 (ACHN) was 20.5 µM (inactive), the GI50 (BT-549) was 26.2 µM (inactive) and the GI50 (CAKI-1) was 28.4 µM (inactive). For the same compound, the GI50 (CCRF-CEM) was 10.8 µM (inactive), the GI50 (COLO 205) was 14.5 µM (inactive) and the GI50 (DU-145) was 26.2 µM (inactive). The GI50 (EKVX) was 27.3 µM (inactive), the GI50 (HCC 2998) was 21.4 µM (inactive) and the GI50 (HCT-116) was 17.2 µM (inactive). For the same compound, the GI50 (HCT-15) was 26.4 µM, the GI50 (HL-60) was 8.09 µM (inactive) and the GI50 (HOP-62) was 20 µM (inactive). The GI50 (HOP-92) was 31.8 µM (inactive), the GI50 (HT-29) was 21.6 µM (inactive) and the GI50 (Hs-578T) was 22.8 µM (inactive). The GI50 (IGROV-1) was 24.2 µM (inactive), the GI50 (K562) was 21.3 µM (inactive) and the GI50 (KM12) was 28.2 µM (inactive). For the same compound, the GI50 (LOX IMVI) was 19.4 µM (inactive), the GI50 (M14) was 36.1 µM (inactive) and the GI50 (MCF7) was 17.9 µM (inactive). For the same compound, the GI50 (MDA-MB-435) was 25.6 µM (inactive), the GI50 (MDA-N) was 19.2 µM (inactive) and the GI50 (MOLT-4) was 16 µM (inactive). The GI50 (Malme-3M) was 18.5 µM (inactive), the GI50 (NCI-H226) was 22.2 µM (inactive) and the GI50 (NCI-H23) was 27.8 µM (inactive). For the same compound, the GI50 (NCI-H460) was 18.4 µM (inactive), the GI50 (NCI-H522) was 16.3 µM (inactive) and the GI50 (NCI/ADR-RES) was 24.2 µM (inactive). For the same compound, the GI50 (OVCAR-3) was 26.5 µM (inactive), the GI50 (OVCAR-4) was 27.2 µM (inactive) and the GI50 (OVCAR-5) was 28.4 µM (inactive). For the same compound, the GI50 (OVCAR-8) was 21.4 µM (inactive), the GI50 (PC-3) was 19.5 µM (inactive) and the GI50 (RPMI-8226) was 18.5 µM (inactive). The GI50 (RXF 393) was 20.8 µM (inactive), the GI50 (SF-268) was 27.3 µM (inactive) and the GI50 (SF-295) was 20.2 µM (inactive). The GI50 (SF-539) was 18 µM (inactive), the GI50 (SK-MEL-28) was 25 µM (inactive) and the GI50 (SK-MEL-2) was 20.4 µM (inactive). For the same compound, the GI50 (SK-MEL-5) was 15 µM (inactive), the GI50 (SK-OV-3) was 32.3 µM (inactive) and the GI50 (SN12C) was 12.6 µM (inactive). The GI50 (SNB-19) was 31.1 µM (inactive), the GI50 (SNB-75) was 23.3 µM (inactive) and the GI50 (SR) was 16.5 µM (inactive). The GI50 (SW-620) was 24.4 µM (inactive), the GI50 (T47D) was 27 µM (inactive) and the GI50 (TK-10) was 24.2 µM (inactive). For the same compound, the GI50 (U-251) was 24.3 µM (inactive), the GI50 (UACC-257) was 23.5 µM (inactive) and the GI50 (UACC-62) was 15.6 µM (inactive). For the same compound, the GI50 (UO-31) was 29.5 µM (inactive).
